For data set [1], the system named is GABAA receptors in hippocampal neurons. Kind of data set: Whole-cell patch clamp in hippocampal neurons (HN). In kind it is cell-based, rat. As to conditions: for increase of GABA-evoked currents: 500 nM modulator co-applied with 10 μM GABA; for increase of MG-evoked currents: 500 nM modulator co-applied with 10 μM MG. The procedure:
(§1) Reagents: All reagents were obtained from Sigma-Aldrich.
Neurons were maintained in neurobasal medium with B27 supplement and glutamax in a humidified atmosphere with 5% CO2 at 37° C.
(§2) Filter and sampling frequencies were 5 and 25 kHz, respectively, for voltage-clamp experiments and 1 and 10 kHz, respectively, for current-clamp recording. Experiments were performed at 32° C. using a feedback-controlled heated perfusion system (Warner Instruments). Vm, ligand-gated currents, and potassium channel currents were studied in a bath solution containing 1 mM CaCl2, 1 mM MgCl2, 4 mM KCl, 140 mM NaCl, 5 mM glucose, and 10 mM HEPES (pH 7.4). […] Electrodes were coated with Sigmacote (Sigma) prior to use.
(§3) Ligand-gated currents: Ligand-gated currents were studied in voltage-clamp mode by application of reagents to cells held at −50 mV.
In general terms: Patch clamp records ionic current or voltage across a cell membrane.

For another data set, the system named is locomotion in Cd-1 mice. Kind of data set: Open field test after i.p. glyceraldehyde. Type of data set: in vivo, mouse. The note with it: GA i.p., tested 10 min after injection. The procedure: GA is rapidly converted into MG. Cd-1 mice (Charles River, Portage Mich.) were treated i.p. With vehicle (0.9% NaCl) or GA at the indicated doses. Ten minutes after injection, mice were tested in the open field (OF) test (locomotor chambers). Behavioral data were collected at 5 and 10 minutes. Because vehicle-treated mice differed in total distance traveled between the testing days, the data were not combined into a single analysis. Statistical analyses included repeated-measures anova for the factor treatment. The repeated measures were total distance (at 5 and 10 min) and % center time (at 5 and 10 min). For comparison of vehicle and GA at individual time points, a t-test was used. […] This would be an additional means of obtaining desirable clinical effects, including anxiolytic, antidepressant, anti-epileptic, and induction of sleep.

Data set [2] concerns GABAA receptors in macropatches excised from CGN. Put plainly: Macropatch recording from CGN. The note with it: 10 μM; SR 10 μM at the extracellular face (pipette). In kind it is cell-based, rat. The procedure:
Macropatch recording: Macropatch recording was performed with 1.5-2 MΩ electrodes filled with bath solution. The inside of excised patches was perfused with electrode solution containing the indicated reagents. SR was added to the electrode where indicated.

Data set [3] concerns GABAA receptors in cerebellar granule neurons. Kind of data set: Whole-cell patch clamp in cerebellar granule neurons (CGN). In kind it is cell-based, rat. Here is the method: as §1
Culture of rat CGN: CGN were cultured from mixed-sex Sprague-Dawley rats. Tissue was dissected from 6- to 8-day-old rats. Cells were suspended in minimal essential medium supplemented with 10% fetal calf serum, 26 mM glucose, 19 mM KCl, 2 mM 1-glutamine, and penicillin/streptomycin (50 IU/ml and 50 μg/ml). Cells were seeded on poly-1-lysine-coated coverslips and incubated in a humidified atmosphere containing 5% CO2 at 37° C. After 48 hours, the culture medium was replaced with minimal essential medium supplemented with 10% horse serum, 26 mM glucose, 19 mM KCl, 2 mM 1-glutamine, penicillin/streptomycin (50 IU/ml and 50 μg/ml), and 80 μM 1-fluorodeoxyuridine. Culture medium was exchanged every three days. All recordings were made from cells between days 6 to 9 in culture.
as §2, §3

Data set [4] concerns depression-like behavior in mice. Put plainly: Chronic forced swim test (cFST), osmotic minipump. In kind it is in vivo, mouse. The note with it: fluoxetine 18 mg/kg/day, 14 days. The procedure: To fully assess the therapeutic potential of GLO1 inhibitors, it is necessary to utilize behavioral models sensitive to chronic administration. These models are highly informative as the therapeutic onset of antidepressant action mimics clinical onset in humans. pBBG was administered by osmotic minipumps (Alzet) for 14 days at various doses (0, 5, 10, 15, 30 and 60 mg/kg/day) to establish a dose response curve. Osmotic minipumps are ideal for chronic treatment as they release a constant volume at a very slow rate minimizing the stress of multiple injections.

Data set [5] has as its system anxiety-like behavior in C57BL6/J mice. Put plainly: OFT after bilateral microinjection into the basolateral amygdala (BLA). As to conditions: midazolam 4 mM, 0.5 ul bilateral into BLA, over 30 m.
Data set [6] has as its system motor coordination in mice. Kind of data set: Balance beam test. In kind it is in vivo, mouse. As to conditions: 300 mg/kg i.p., B6 mice. The procedure: The balance beam was 97 cm×9.5 mm and elevated to 46 cm. Mice were tested on the balance beam, and missteps were counted.
Balance beam: The balance beam test was performed as described above. Ten minutes post-injection, mice were tested on the balance beam, and missteps were recorded.

In data set [7] the test system is anxiety-like behavior and locomotion in mice. Put plainly: Open field (OF) test. Type of data set: in vivo, mouse. The note with it: B6 mice. Here is the method:
OF test: Mice were placed into the center of the OF, and activity was monitored for five to ten minutes. The apparatus was illuminated to approximately 40 lux. Data were collected and processed using the manufacturer's software (AccuScan Instruments).
OF test: Ten minutes post-injection, mice were placed into the center of the OF. The apparatus was illuminated to approximately 40 lux. Behavior was measured as described above.
OF test replication studies: Ten to twenty minutes post-injection, mice were tested in the OF for five to ten minutes. In some experiments, behavior was scored as described above. In other experiments, mice were tested in the OF, and behavior was automatically scored by the Noldus Ethovision System. For mice tested in the Noldus system, the apparatus was illuminated to approximately 1,000 lux.
Chronic MG administration: For five days, mice were injected twice daily with vehicle or MG (4 mg/kg). Twelve hours after the final injection, mice were tested in the OF as described above.
Pure MG: Pure MG was obtained from Dr. John Termini at the City of Hope, Duarte, Calif. It was administered at the indicated doses by i.p. injection. Mice were tested as described above.
OF test: Two hours post-injection, mice were tested in the OF test as described above. The center size was 10×10 cm. The apparatus was illuminated to approximately 40 lux.

In the next data set the test system is mice. Kind of data set: Hypothermia (rectal temperature). Type of data set: in vivo, mouse. The note with it: 300 mg/kg i.p., B6 mice. The procedure:
Hypothermia: Thirty minutes post-injection, rectal temperature was measured with a digital thermometer.

As to `CN1C(=O)CN=C(c2ccccc2)c2cc(Cl)ccc21` [Diazepam, diazepam], in [1], the “increase of GABA-evoked currents” value is recorded as “approximately 45%” and the “increase of MG-evoked currents” value is reported as “approximately 60%”.

Turning to `O=CC(O)CO` (stereo not drawn) [GA, glyceraldehyde], the “locomotor effect in the open field” value in the data set on locomotion in Cd-1 mice is given as “has locomotor depressant effects”.

Turning to `NCCCC(=O)O` [GABA, gamma-aminobutyric acid, reference compound], in data set [2], the “current on application to the intracellular face of macropatches” value is “did not elicit a current”.

On to `Br.COc1ccc(-c2ccc(=N)n(CCCC(=O)O)n2)cc1` [SR, reference compound], for which, in data set [2], the “current on application to the intracellular face of macropatches” value was “this current was inhibited when SR was applied to the extracellular face”. Moreover, in data set [3] (10 μM SR, 10 μM MG or GABA), the “inhibition of Vm changes induced by MG and GABA” value is reported as more than 95%; the “inhibition of current-density changes induced by MG and GABA” value is more than 95%.

Consider `CNCCC(Oc1ccc(C(F)(F)F)cc1)c1ccccc1` (stereo not drawn) [fluoxetine], for which, in [4], the “depression-like behavior in the cFST” value is recorded as “reduces depression-like behavior in the forced swim test”.

Consider `Cc1ncc2n1-c1ccc(Cl)cc1C(c1ccccc1F)=NC2` [midazolam], for which the “center duration in the OFT” value in data set [5] was “increased center duration in the OFT”. Moreover, in data set [1], the “increase of GABA-evoked currents” value was “approximately 27%” and the “increase of MG-evoked currents” value is reported as “approximately 40%”.

Consider `CC(=O)C=O` [pure MG, methylglyoxal], for which the “footslips on the balance beam (ataxia)” value in data set [6] is “increased footslips on the balance beam”. Also, the “inward currents in CGN” value in [3] (10 μM) was “evoked inward currents in CGN”. Further, the “time in the center of the OF” value in data set [7] (pure MG 5 mg/kg, 10 min later) is reported as “increased time in the center of the OF”. Besides, in [7] (pure MG 300 mg/kg), the “total distance traveled in the OF” value is reported as “reduced total distance traveled in the OF”. For the same compound, in the data set on mice, the hypothermia result is listed as “caused hypothermia”.

Consider `Cc1ccc(-c2nc3ccc(C)cn3c2CC(=O)N(C)C)cc1` [zolpidem], for which, in data set [1], the “increase of GABA-evoked currents” value is “approximately 17%” and the “increase of MG-evoked currents” value is “approximately 15%”.

Source of the values: patent US11235020B2, “Methods and compositions for inhibiting glyoxalase 1 (GLO1)” (priority 2013, dated 2022).
